Test system: apple leaf cuticles
Assay: Penetration of active compounds through enzymatically isolated apple leaf cuticles
Assay type: in vitro ADME, apple trees of the Golden Delicious variety
Description: Penetration* of spirotetramate with penetrants according to the invention compared to the control without penetrant and the rapid-action uptake enhancer Genapol® X150. All penetrants employed at 0.5 g/l.
This test measured the penetration of active compounds through enzymatically isolated cuticles of apple leaves.
The leaves used were cut in the fully developed state from apple trees of the Golden Delicious variety. The cuticles were isolated as follows: • first of all, leaf discs labelled on the underside with dye and formed by punching were filled by means of vacuum infiltration with a pectinase solution (0.2% to 2% strength) buffered to a pH of between 3 and 4, • then sodium azide was added and • the leaf discs thus treated were left to stand until the original leaf structure broke down and the non-cellular cuticles underwent detachment.
Thereafter only those cuticles from the top leaf sides that were free from stomata and hairs were used further. They were washed a number of times in alternation with water and with a buffer solution, pH 7. The clean cuticles obtained were, finally, applied to Teflon plaques and smoothed and dried with a gentle jet of air.
In the next step the cuticular membranes obtained in this way were placed in stainless steel diffusion cells (transport chambers) for the purpose of membrane transport investigations. For these investigations the cuticles were placed centrally using tweezers on the edges of the diffusion cells, which were coated with silicone grease, and sealed with a ring, which was likewise greased. The arrangement was chosen so that the morphological outer side of the cuticles was directed outwards, in other words to the air, while the original inner side was facing the interior of the diffusion cell.
The diffusion cells were filled with a 1% phospholipid suspension. Penetration was determined by applying in each case 10 μl of the spray liquor of the composition below, containing radiolabeled active compound in the stated concentrations, to the outer face of the cuticles. The spray liquor is prepared using local tap water of average hardness.
After the spray liquors had been applied, the water was evaporated and then the chambers were inverted and placed in thermostatted troughs, in which the temperature and air humidity over the cuticles was adjustable by means of a gentle air stream onto the cuticles with the spray coating (20° C., 60% rh). At regular intervals, an autosampler took aliquots which were subjected to measurement in a scintillation counter.
Facilitation of the penetration of various active compounds* by penetrants according to the invention exemplified by Crovol® CR70G in comparison to the control.

[1] = with 0.5 g/l Crovol CR70G, after 24 hours
[2] = with 0.5 g/l Crovol CR70G, after 72 hours
[3] = without Crovol CR70G, after 24 hours
[4] = without Crovol CR70G, after 72 hours
[5] = spirotetramate 0.2 g/l, control without additive

O=[N+]([O-])NC1=NCCN1Cc1ccc(Cl)nc1 [Imidacloprid, imidacloprid]
% penetration (after hours) (apple (Malus domestica), 24 h): 0.7%
% penetration (after hours) (apple (Malus domestica), 48 h): 2.2%

CC(C)(C)C(O)(CCc1ccc(Cl)cc1)Cn1cncn1 (centres unmarked) [Tebuconazole, tebuconazole]
% penetration (after hours) [1]: 6.0%
% penetration (after hours) [2]: 31.5%
% penetration (after hours) [3]: <2%
% penetration (after hours) [4]: <2%

CS(=O)(=O)c1ccc(C(=O)C2C(=O)CCCC2=O)c(Cl)c1COCC(F)(F)F [Tembotrione, tembotrione]
% penetration (after hours) (apple (Malus domestica), 6 h): <1%
% penetration (after hours) (apple (Malus domestica), 18 h): <1%

CCOC(=O)OC1=C(c2cc(C)ccc2C)C(=O)N[C@]12CC[C@@H](OC)CC2 [spirotetramate]
% penetration after 24 h [5]: 0.1%
% penetration after 3 days [5]: 0.3%
% penetration (after hours) [1]: 5.8%
% penetration (after hours) [2]: 40.5%
% penetration (after hours) [3]: 0.1%
% penetration (after hours) [4]: 0.3%
